The source of these data is patent publication US9382306B2, “Octapeptide compounds derived from somatostatin and the therapeutic use thereof” (IPSEN PHARMA S.A.S., priority 2008, dated 2016).

pKi: −log10 of the molar value. Values joined by “and” are separate entries in the source; they are usually repeats but may differ in a detail not shown here. Equal values may be shown once. Bridge positions count the residues as written; N and C are the ends. Square brackets hold non-standard residues; d marks the D form. Peptide text beside a SMILES is read from it. ξ: configuration not given here. d2Nal = N[C@H](Cc1ccc2ccccc2c1)C(=O)O; Thr(3ξ) = CC(O)[C@H](N)C(=O)O A value given as a limit tells only on which side of the number the result lay.

Data set [1] can be described thus: Self-assembly study: putting peptides in solution in water, macroscopic, ATR-FTIR, TEM and SAXS analysis. It counts as physicochemical. The note with it: 3 to 15% by mass of peptide in water; form and diameter of the self-assembled structure, or soluble / insoluble. The text has this: The procedure used comprises three stages: putting the peptides in solution and macroscopic analysis; spectroscopic and microscopic analyses of the structures formed and by small-angle X-ray scattering (SAXS) analyses.
The first stage of the characterization of the derivatives is the production of a range of concentrations from 3 to 15% by mass of peptide in water. Gelling of the solution indicates the presence of self-assembled structures which can be nanotubes but can also be fibres or other self-organised structures.
The object of this stage is to verify the presence of self-assembled structures, to characterize their self-assembly and to visualize them by microscopy.
Infrared spectroscopy makes it possible to obtain information on the method of stacking the peptides in the self-assemblies. The amide band spectrum, reflecting the absorption spectra of the carbonyl functions of the peptide backbone, gives information on the type of hydrogen bond in which these groups are involved (H bonds leading to the formation of the […], a helix or also a loop or random conformation) and consequently on the secondary and tertiary structure of the peptides in solution and self-assembled. The attenuated total reflection technique (ATR-FTIR) uses a crystal on which the solid or liquid sample is deposited. The infrared light is guided through this crystal at an angle which allows it to be reflected several times inside the crystal, which increases the sensitivity of the technique. Due to the performance of this device, it is then possible perform measurements on relatively dilute solutions. The beam penetrates a few microns into the sample deposited on the crystal, which means that only the molecules/structures which are deposited on the surface of the crystal are analyzed. Moreover, this technique is non-destructive.
The assembled structures are then visualized by transmission electron microscopy (TEM). This very powerful technique, allowing magnifications greater than 500,000 times, is one of the few techniques capable of visualizing structures on the nanometric scale. The sample is subjected to an electron beam. The visualization of the transmitted beam is produced either by a photoluminescent screen, or by a CCD camera. The sample in the microscope being under vacuum, it is samples dried after staining with uranyl salts in order to increase contrast which are observed.
The peptide in solution is firstly deposited on a copper grid covered with a film of carbon. After deposition of the materiel, the excess liquid is eliminated. In the same way, the solution of colorant, in our case uranyl acetate, is deposited on the grid, the excess is eliminated and the grid is dried in the open air. It can then be introduced into the microscope.
The samples, liquids or gels, are introduced into a capillary column and subjected to a monochromatic flow of X-rays. The intensity diffused is measured as a function of the scattering angle with respect to the incident angle.
The diffusion patterns thus obtained must be the subject of a correlation with a close theoretical model of the structures present in the sample. In the case where the peptides have self-assembled in the form of hollow nanotubes, the modelling of the experimental data with the theoretical diffusion produced by infinitely long hollow columns makes it possible to determine with precision the diameter of the columns and to estimate their wall thickness (Valery et al. in Biophysical journal, 2004, 86(4), 2484-2501 and Proc. Natl. Acad. Sci., 2003, 100(18) 10258-10262). For polydisperse, nanotubular, fibrilar, micellar or lamellar self-assemblies, it is the correlation of the spectroscopic, microscopic and XR scattering data which makes it possible to estimate a size range for the objects observed.

For data set [2], the target named is T1, somatostatin receptors sub-type 5 (Homo sapiens, UniProt P35346).
T1 construct: expressed in transfected cells; membrane preparations
T1 sequence (P35346 whole entry): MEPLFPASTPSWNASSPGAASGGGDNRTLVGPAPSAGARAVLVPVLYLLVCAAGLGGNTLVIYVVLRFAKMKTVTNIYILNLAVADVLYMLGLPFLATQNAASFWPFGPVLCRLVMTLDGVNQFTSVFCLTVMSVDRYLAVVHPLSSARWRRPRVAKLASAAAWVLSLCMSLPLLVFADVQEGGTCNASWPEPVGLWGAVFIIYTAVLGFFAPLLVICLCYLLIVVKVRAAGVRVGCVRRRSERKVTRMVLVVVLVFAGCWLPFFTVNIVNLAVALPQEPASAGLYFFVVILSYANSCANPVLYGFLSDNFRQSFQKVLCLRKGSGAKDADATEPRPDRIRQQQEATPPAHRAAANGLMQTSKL
Description: Affinity for somatostatin receptors: inhibition of [125I-Tyr11]SRIF-14 binding to membranes of transfected CHO-K1 cells. The note with it: competitive inhibition of [125I-Tyr11]SRIF-14 binding, 37° C.

As to `CC(C)[C@@H]1NC(=O)[C@H](CCCCN)NC(=O)[C@@H](C)NC(=O)[C@H](Cc2ccc(O)cc2)NC(=O)[C@@H](NC(=O)[C@H](N)Cc2ccc3ccccc3c2)CSSC[C@@H](C(=O)N[C@H](C(N)=O)C(C)O)NC1=O` (stereo partly drawn) [Example 4, H-D-2-Nal^1-cyclo(Cys^2Tyr^3-D-Ala^4-Lys^5-Val^6Cys^7)-Thr^8-NH2.2 CH3COOH] (H-[d2Nal]CY[dA]KVC[Thr(3ξ)]-NH2; disulfide 2-7), the Assembly result in data set [1] was “self-assembled fibres”.

As a reminder, the pKi is −log10 of the Ki, conventionally taken in molar units. Low readings indicate a large Ki, high ones a small Ki. In the case of `CC(C)[C@@H]1NC(=O)[C@H](CCCCN)NC(=O)[C@@H](Cc2c[nH]cn2)NC(=O)[C@H](Cc2ccc(O)cc2)NC(=O)[C@@H](NC(=O)[C@H](N)Cc2ccc3ccccc3c2)CSSC[C@@H](C(=O)N[C@H](C(N)=O)C(C)O)NC1=O` (stereo partly drawn) [Example 3, H-D-2-Nal^1-cyclo(Cys^2-Tyr^3-D-His^4-Lys^5-Val^6-Cys^7)-Thr^8-NH2.2 CH3COOH] (H-[d2Nal]CY[dH]KVC[Thr(3ξ)]-NH2; disulfide 2-7), the negative logarithm of the Ki (pKi) in data set [2] was at least 5.30. For the same compound, the Assembly entry in data set [1] was “monodisperse peptide nanotubes and 9.3 nm monodisperse nanotube”.

As to `CC(C)[C@@H]1NC(=O)[C@H](CCCCN)NC(=O)[C@@H](Cc2cccc3ccccc23)NC(=O)[C@H](Cc2ccc(O)cc2)NC(=O)[C@@H](NC(=O)[C@H](N)Cc2ccc3ccccc3c2)CSSC[C@@H](C(=O)N[C@H](C(N)=O)C(C)O)NC1=O` (stereo partly drawn) [Example 6, H-D-2-Nal^1-cyclo(Cys^2Tyr^3-13-(1-naphthyl)-D-Ala^4-Lys^5-Val^6-Cys^7)-Thr^8-NH2.2 CH3COOH], the pKi in data set [2] was at least 7.00. In data set [1], the Assembly result is “monodisperse peptide nanotubes and 35 nm monodisperse nanotube”.
